We go through 20 compounds from patent US11559538B2, “Substituted 1,2-oxaborolan-2-ols as PDE4 inhibitors” (Pfizer Inc., priority 2018, dated 2023).

The subject of experiment [1] is IL-13. Put plainly: Cytokine assay: IL-13 release from PHA-L stimulated human PBMCs. The note with it: read-out: IL13 IC50. Type of experiment: cell-based. On the procedure:
(§1) Cytokine inhibitory activity is determined by measuring the effect of test agent on the release of the cytokines IL-4, IL-13 and IFNγ from human peripheral blood mononuclear cells (PBMCs) stimulated with the T-cell mitogen phytohemagglutinin-L (PHA-L). At the time of assay, human PBMCs (Astarte Biologics) are removed from cryopreservation, thawed quickly at 37° C., diluted in assay medium (RPMI-Gibco 1640 medium, 10% heat inactivated fetal bovine serum (HIFBS), 2 mM glutamine and 10 mM HEPES pH 7.4) and then centrifuged at 250×g for 5 minutes. The resulting cell pellet is re-suspended in assay medium to a concentration of approximately 5×10^6 cells/mL and 50 μL of this cell suspension (approximately 250,000 cells) is added to each well of a 384-well cell culture microtiter plate (Perkin Elmer). Varying concentrations of test compound are then diluted in assay medium and added to the assay plate wells in a volume of 25 μL. After −10 minutes at room temperature (21° C.) the cells are stimulated by the addition of 25 μL of PHA-L (14 μg/mL; Millipore) and the assay plate is placed in an incubator at 37° C. in a humidified environment in 5% carbon dioxide. The final assay conditions are approximately 250,000 human PBMCs per well in assay medium containing 3.5 μg/mL PHA-L and the indicated final concentration of test compound (approximately 10 μM to […] by 4-fold dilution). The final concentration of DMSO in the assay is approximately 0.25%. After 48 hours, the assay plate is removed from the incubator and centrifuged at 250×g for 5 minutes. A portion of the resulting cell supernatant is then used to determine the amount of IL-4, IL-13 and IFNγ in each well. Cytokine measurements are made using human IL-4, IL-13 or IFNγ HTRF assay kits (CisBio) following the manufacturer's assay protocol. The concentrations and resulting effect values for tested compounds are plotted and the concentration of compound required for 50% effect (IC50) is determined with a four-parameter logistic dose response equation (E-WorkBook, ID Business Solutions Ltd.) and shown in Table 17.

In experiment [2] the test system is IL-4. The experiment can be described thus: Cytokine assay: IL-4 release from PHA-L stimulated human PBMCs. Type of experiment: cell-based. The note with it: read-out: IL4 IC50. The procedure:
as §1

Experiment [3] concerns the target PDE4B (aa 152-484, Uniprot ID Q07343) (Homo sapiens (Human), UniProt Q07343). The experiment can be described thus: PDE4 SPA assay (scintillation proximity assay). The note with it: read-out: PDE4B2 IC50. The experiment is classed as biochemical. The procedure:
Phosphodiesterase (PDE) activity is determined by measuring the effect of a test agent on the activity of the PDE4B enzyme in a scintillation proximity assay (SPA). At the time of assay, approximately 30 μL of PDE4B (aa 152-484, Uniprot ID Q07343) in 50 mM Tris pH 7.5, 1.3 mM MgC2, 0.004% Brij 35 is added to a 384 well white clear bottom polystyrene plate (Corning) containing 1 μL of varying concentrations of test compound. After −10 minutes at room temperature (RT; 21° C.), the assay is initiated by the addition of 20 μL of a mixture of ^3H-labeled (adenosine 3′, 5′-cyclic phosphate, ammonium salt, [2,8-^3H]; Perkin Elmer) and unlabeled cAMP. The final assay conditions are approximately 81.6 pM PDE4B in 50 mM Tris pH 7.5, 1.3 mM MgCl2, 0.004% Brij 35, 1 μM ^3H-labeled/unlabeled cAMP (1425 dpm/pmol) and the indicated final concentration of test compound (approximately 10 μM to […] by 4-fold dilution). The final concentration of DMSO in the assay is approximately 2.0%. After 30 minutes at RT, the assay is terminated by the addition of approximately 20 μL of an aqueous solution of PDE YSI SPA beads (8 mg/mL in water; Perkin Elmer). The beads are allowed to settle for at least 2 hours and the plate is then counted on a MicroBeta2 (Perkin Elmer). The concentrations and resulting effect values for the tested compound are plotted and the concentration of compound required for 50% effect (IC50) is determined with a four-parameter logistic dose response equation (E-WorkBook, ID Business Solutions Ltd.) and shown in Table 17.

Experiment [4] relates to IFNγ. The experiment can be described thus: Cytokine assay: IFNγ release from PHA-L stimulated human PBMCs. The experiment is classed as cell-based. On the procedure: as §1

Where two headings read alike, the source gives them in different places.

Chain of PDE4B (aa 152-484, Uniprot ID Q07343) (Q07343 324-656): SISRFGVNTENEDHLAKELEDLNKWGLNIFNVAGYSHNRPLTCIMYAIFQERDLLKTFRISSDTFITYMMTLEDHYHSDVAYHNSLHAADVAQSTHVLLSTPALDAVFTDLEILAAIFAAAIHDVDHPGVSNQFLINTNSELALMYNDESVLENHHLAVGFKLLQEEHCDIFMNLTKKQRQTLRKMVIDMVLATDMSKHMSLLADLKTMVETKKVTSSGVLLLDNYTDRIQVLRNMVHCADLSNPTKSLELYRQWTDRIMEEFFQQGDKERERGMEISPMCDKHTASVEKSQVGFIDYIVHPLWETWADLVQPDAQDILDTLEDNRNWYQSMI

The IC50 is the concentration needed to halve the response being measured. On to `COc1ccc(-c2cncc(C3COB(O)C3)c2)cc1OC` (single isomer, unassigned) [Example 1, 4-(5-(3,4-dimethoxyphenyl)pyridin-3-yl)-1,2-oxaborolan-2-ol], for which the IC50 amounted to 284 nM in experiment [1], 14.3 nM in experiment [2], 3.16 nM in experiment [3] and 2.98 nM in experiment [4].

On to `COc1ccc(-c2cncc(C3COB(O)C3)c2)cc1OC(C)C` (single isomer, unassigned) [Example 6, 4-(5-(3-isopropoxy-4-methoxyphenyl)pyridin-3-yl)-1,2-oxaborolan-2-ol], for which the half-maximal inhibitory concentration (IC50) in experiment [1] was 283 nM; in experiment [2] it was 17.6 nM; in experiment [3], 1.05 nM; in experiment [4], 0.72 nM.

Consider `COc1ccc(-c2cncc(C3COB(O)C3)c2)cc1OC1CC1` (single isomer, unassigned) [Example 7, 4-(5-(3-cyclopropoxy-4-methoxyphenyl)pyridin-3-yl)-1,2-oxaborolan-2-ol], for which the half-inhibitory concentration (IC50) is 289 nM in experiment [1], 7.76 nM in experiment [2], 0.97 nM in experiment [3] and 0.71 nM in experiment [4].

As for `COc1ccc(-c2cncc(C3COB(O)C3)c2)cc1OCCO` (single isomer, unassigned) [Example 8, 4-(5-(3-(2-hydroxyethoxy)-4-methoxyphenyl)pyridin-3-yl)-1,2-oxaborolan-2-ol], the IC50 in experiment [1] came to 25 nM; in experiment [2], 0.76 nM; in experiment [3], 2.42 nM; in experiment [4] it was 1.2 nM.

On to `COc1ccc(-c2cncc(C3COB(O)C3)c2)cc1OCCCO` (single isomer, unassigned) [Example 9, 4-(5-(3-(3-hydroxypropoxy)-4-methoxyphenyl)pyridin-3-yl)-1,2-oxaborolan-2-ol], for which the IC50 stood at 265 nM in experiment [1] (Homo sapiens, PBMC); 3.63 nM in experiment [2] (Homo sapiens, PBMC); 1.26 nM in experiment [3]; 1.87 nM in experiment [4] (Homo sapiens, PBMC).

In the case of `CCOc1c(OC)ccc(-c2cncc(C3COB(O)C3)c2)c1C(F)F` (single isomer, unassigned) [Example 11, 4-(5-(2-(difluoromethyl)-3-ethoxy-4-methoxyphenyl)pyridin-3-yl)-1,2-oxaborolan-2-ol], the half-maximal inhibitory concentration (IC50) worked out at 10000 nM in experiment [1], 141 nM in experiment [2], 33.5 nM in experiment [3] and 68.3 nM in experiment [4].

For the compound `CCOc1cc(-c2cncc(C3COB(O)C3)c2)cc(F)c1OC` (single isomer, unassigned) [Example 12, 4-(5-(3-ethoxy-5-fluoro-4-methoxyphenyl)pyridin-3-yl)-1,2-oxaborolan-2-ol], the 50% inhibitory concentration (IC50) in experiment [1] was found to be 162 nM; in experiment [2], 2.32 nM; in experiment [3] it was 1.08 nM; in experiment [4] it was 0.99 nM.

As for `CCOc1cc(-c2cncc(C3COB(O)C3)c2)cc(Cl)c1OC` (single isomer, unassigned) [Example 13, 4-(5-(3-chloro-5-ethoxy-4-methoxyphenyl)pyridin-3-yl)-1,2-oxaborolan-2-ol], the concentration for half-maximal inhibition (IC50) in experiment [1] stood at 166 nM; in experiment [2], 5.98 nM; in experiment [3], 0.97 nM; in experiment [4] it was 4.89 nM.

Turning to `CCOc1cc(-c2cncc(C3COB(O)C3)c2)c(F)cc1OC` (single isomer, unassigned) [Example 14, 4-(5-(5-ethoxy-2-fluoro-4-methoxyphenyl)pyridin-3-yl)-1,2-oxaborolan-2-ol], the half-maximal inhibitory concentration (IC50) in experiment [1] (Homo sapiens, PBMC) was found to be 91 nM; in experiment [2] (Homo sapiens, PBMC), 3.21 nM; in experiment [3], 1.5 nM; in experiment [4] (Homo sapiens, PBMC), 1.85 nM.

Consider `CCOc1cc(-c2cncc(C3COB(O)C3)c2)c(Cl)cc1OC` (single isomer, unassigned) [Example 15, 4-(5-(2-chloro-5-ethoxy-4-methoxyphenyl)pyridin-3-yl)-1,2-oxaborolan-2-ol], for which the IC50 in experiment [1] (Homo sapiens, PBMC) was 136 nM; in experiment [2] (Homo sapiens, PBMC) it was 1.41 nM; in experiment [3] it was 1.57 nM; in experiment [4] (Homo sapiens, PBMC), 0.71 nM.

In the case of `CCCOc1nc(-c2cncc(C3COB(O)C3)c2)c(F)cc1OC` (single isomer, unassigned) [Example 16, 4-(3-fluoro-5-methoxy-6-propoxy-[2,3′-bipyridin]-5′-yl)-1,2-oxaborolan-2-ol], the IC50 in experiment [1] was determined as 126 nM; in experiment [2] it was 0.54 nM; in experiment [3] it was 0.05 nM; in experiment [4], 0.82 nM.

Regarding `CCCOc1cc(-c2cncc(C3COB(O)C3)c2)ccc1OC(F)F` (single isomer, unassigned) [Example 17, 4-(5-(4-(difluoromethoxy)-3-propoxyphenyl)pyridin-3-yl)-1,2-oxaborolan-2-ol], the IC50 in experiment [1] (Homo sapiens, PBMC) turned out to be 138 nM; in experiment [2] (Homo sapiens, PBMC) it was 0.65 nM; in experiment [3], 0.28 nM; in experiment [4] (Homo sapiens, PBMC) it was 0.47 nM.

With `CCCOc1cc(-c2cncc(C3COB(O)C3)c2)cnc1OC` (single isomer, unassigned) [Example 18, 4-(6′-methoxy-5′-propoxy-[3,3′-bipyridin]-5-yl)-1,2-oxaborolan-2-ol], the 50% inhibitory concentration (IC50) in experiment [1] (Homo sapiens, PBMC) stood at 218 nM; in experiment [2] (Homo sapiens, PBMC), 1.91 nM; in experiment [3] it was 0.74 nM; in experiment [4] (Homo sapiens, PBMC), 2.23 nM.

Turning to `CCOc1cc(-c2cc([C@@H]3COB(O)C3)cnc2C)ccc1OC` (single isomer, unassigned) [Example 19], the IC50 was determined as 1480 nM in experiment [1] (Homo sapiens, PBMC); 2.56 nM in experiment [2] (Homo sapiens, PBMC); 2.96 nM in experiment [3]; 1.68 nM in experiment [4] (Homo sapiens, PBMC).

On to `CCOc1cc(-c2cc([C@H]3COB(O)C3)cnc2C)ccc1OC` (single isomer, unassigned) [Example 20], for which the concentration for half-maximal inhibition (IC50) stood at 8790 nM in experiment [1] (Homo sapiens, PBMC); 86.8 nM in experiment [2] (Homo sapiens, PBMC); 26.9 nM in experiment [3]; 103 nM in experiment [4] (Homo sapiens, PBMC).

In the case of `CCOc1cc(-c2cncc(C3COB(O)C3)c2C)ccc1OC` (single isomer, unassigned) [Example 21, 4-(5-(3-ethoxy-4-methoxyphenyl)-4-methylpyridin-3-yl)-1,2-oxaborolan-2-ol], the IC50 in experiment [1] was determined as 159 nM; in experiment [2] it was 0.84 nM; in experiment [3], 0.64 nM; in experiment [4], 1.35 nM.

Regarding `CCCOc1cc(-c2nc(C)cc(C3COB(O)C3)n2)ccc1OC` (single isomer, unassigned) [Example 22, 4-(2-(4-methoxy-3-propoxyphenyl)-6-methylpyrimidin-4-yl)-1,2-oxaborolan-2-ol], the half-inhibitory concentration (IC50) in experiment [1] (Homo sapiens, PBMC) was determined as 257 nM; in experiment [2] (Homo sapiens, PBMC), 1.75 nM; in experiment [3] it was 7.89 nM; in experiment [4] (Homo sapiens, PBMC), 1.43 nM.

For `CCCOc1cc(-c2nc(C3COB(O)C3)cc(C(F)(F)F)n2)ccc1OC` (single isomer, unassigned) [Example 23, 4-(2-(4-methoxy-3-propoxyphenyl)-6-(trifluoromethyl)pyrimidin-4-yl)-1,2-oxaborolan-2-ol], the IC50 in experiment [1] (Homo sapiens, PBMC) worked out at 132 nM; in experiment [2] (Homo sapiens, PBMC), 0.61 nM; in experiment [3] it was 0.97 nM; in experiment [4] (Homo sapiens, PBMC) it was 0.85 nM.

Regarding `CCOc1cc(-c2cncc(C3COB(O)C3)n2)ccc1OC` (single isomer, unassigned) [Example 24, 4-(6-(3-ethoxy-4-methoxyphenyl)pyrazin-2-yl)-1,2-oxaborolan-2-ol], the IC50 came out at 163 nM in experiment [1] (Homo sapiens, PBMC); 2.24 nM in experiment [2] (Homo sapiens, PBMC); 0.99 nM in experiment [3]; 1.33 nM in experiment [4] (Homo sapiens, PBMC).

In the case of `COc1ccc(-c2cccc(C3COB(O)C3)n2)cc1OC` (stereo not shown) [Example 197, 4-(6-(3,4-dimethoxyphenyl)pyridin-2-yl)-1,2-oxaborolan-2-ol], the half-inhibitory concentration (IC50) in experiment [1] (Homo sapiens, PBMC) is 1580 nM; in experiment [2] (Homo sapiens, PBMC), 107 nM; in experiment [4] (Homo sapiens, PBMC) it was 12.2 nM.
